Positions count from the first letter of the chain named. Like-named read-outs stand apart in the source and are kept apart here.
Legend:
Assay in all cases: intrinsic Trp fluorescence titration
Type in all cases: binding
[1] = target: T1, PimB′ (Corynebacterium glutamicum PimB′, NCgl2106) (Corynebacterium glutamicum, UniProt Q8NNK8, I21A)
T1 sequence (Q8NNK8 1-381 I21A): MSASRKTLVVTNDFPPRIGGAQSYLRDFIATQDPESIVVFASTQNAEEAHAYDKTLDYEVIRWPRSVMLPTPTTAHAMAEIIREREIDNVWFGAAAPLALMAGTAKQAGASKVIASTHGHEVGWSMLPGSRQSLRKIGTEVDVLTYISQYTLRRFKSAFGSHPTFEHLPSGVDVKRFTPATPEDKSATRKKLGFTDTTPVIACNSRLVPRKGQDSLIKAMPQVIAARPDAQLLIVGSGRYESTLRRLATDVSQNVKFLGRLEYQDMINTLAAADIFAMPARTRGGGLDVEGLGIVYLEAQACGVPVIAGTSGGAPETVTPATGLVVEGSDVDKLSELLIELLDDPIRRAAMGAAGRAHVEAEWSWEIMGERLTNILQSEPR

[2] = target: T2, PimB′ (Corynebacterium glutamicum PimB′, NCgl2106) (Corynebacterium glutamicum, UniProt Q8NNK8, G20W)
T2 sequence (Q8NNK8 1-381 G20W): T1 sequence (Q8NNK8 1-381 I21A) with G20W, A21I

[3] = target: T3, PimB′ (Corynebacterium glutamicum PimB′, NCgl2106) (Corynebacterium glutamicum, UniProt Q8NNK8, R210S)
T3 sequence (Q8NNK8 1-381 R210S): T1 sequence (Q8NNK8 1-381 I21A) with A21I, R210S

[4] = target: T4, PimB′ (Corynebacterium glutamicum PimB′, NCgl2106) (Corynebacterium glutamicum, UniProt Q8NNK8, R206S)
T4 sequence (Q8NNK8 1-381 R206S): T1 sequence (Q8NNK8 1-381 I21A) with A21I, R206S

[5] = target: T5, PimB′ (Corynebacterium glutamicum PimB′, NCgl2106) (Corynebacterium glutamicum, UniProt Q8NNK8, S205G)
T5 sequence (Q8NNK8 1-381 S205G): T1 sequence (Q8NNK8 1-381 I21A) with A21I, S205G

[6] = target: T6, PimB′ (Corynebacterium glutamicum PimB′, NCgl2106) (Corynebacterium glutamicum, UniProt Q8NNK8, D13N)
T6 sequence (Q8NNK8 1-381 D13N): T1 sequence (Q8NNK8 1-381 I21A) with D13N, A21I

[7] = target: T7, PimB′ (Corynebacterium glutamicum PimB′, NCgl2106) (Corynebacterium glutamicum, UniProt Q8NNK8)
T7 sequence (Q8NNK8 1-381): T1 sequence (Q8NNK8 1-381 I21A) with A21I

[8] = target: T8, PimB′ (Corynebacterium glutamicum PimB′, NCgl2106) (Corynebacterium glutamicum, UniProt Q8NNK8, G291S)
T8 sequence (Q8NNK8 1-381 G291S): T1 sequence (Q8NNK8 1-381 I21A) with A21I, G291S

[9] = target: T9, PimB′ (Corynebacterium glutamicum PimB′, NCgl2106) (Corynebacterium glutamicum, UniProt Q8NNK8, D13A)
T9 sequence (Q8NNK8 1-381 D13A): T1 sequence (Q8NNK8 1-381 I21A) with D13A, A21I

[10] = target: T10, PimB′ (Corynebacterium glutamicum PimB′, NCgl2106) (Corynebacterium glutamicum, UniProt Q8NNK8, Q22A)
T10 sequence (Q8NNK8 1-381 Q22A): T1 sequence (Q8NNK8 1-381 I21A) with A21I, Q22A

[11] = target: T11, PimB′ (Corynebacterium glutamicum PimB′, NCgl2106) (Corynebacterium glutamicum, UniProt Q8NNK8, H118S)
T11 sequence (Q8NNK8 1-381 H118S): T1 sequence (Q8NNK8 1-381 I21A) with A21I, H118S

[12] = target: T7, PimB′ (Corynebacterium glutamicum PimB′, NCgl2106); remark: listed apart in the source

SMILES | Kd [1] [µM] | Kd [2] [µM] | Kd [3] [µM] | Kd [4] [µM] | Kd [5] [µM] | Kd [6] [µM] | Kd [7] [µM] | Kd [8] [µM] | Kd [9] [µM] | Kd [10] [µM] | Kd [11] [µM] | Kd [12] [µM]
Nc1nc2c(ncn2[C@@H]2O[C@H](COP(=O)(O)OP(=O)(O)O[C@H]3O[C@H](CO)[C@@H](O)[C@H](O)[C@@H]3O)[C@@H](O)[C@H]2O)c(=O)[nH]1 [GDP-Man] | 56 ± 14.5 | 21.9 ± 6.4 | 40.2 ± 10.7 | 42.7 ± 9.4 | 18.7 ± 4.6 | 30.1 ± 6.9 | 19 ± 4.6 | 68.7 ± 35.5 | 42.8 ± 11.9 | 60.3 ± 22.8 | 72.4 ± 27.5 | –
Nc1nc2c(ncn2[C@@H]2O[C@H](COP(=O)(O)OP(=O)(O)O)[C@@H](O)[C@H]2O)c(=O)[nH]1 [GDP] | – | – | – | – | – | – | – | – | – | – | – | 36.5 ± 6.9

From paper PMC2988379 (The Journal of Biological Chemistry, 2010)
